Experimental data published in patent US10065937B2, “FLT3 receptor antagonists” (INSERM (INSTITUT NATIONAL DE LA SANTÉ ET DE LA RECHERCHE …, priority 2014, dated 2018).

How the values were obtained:
[1] = target: T1, SNAP tagged-FLT3 (Homo sapiens, UniProt P36888); assay: Tag-lite competition binding assay (Red-FL displacement, HTRF); settings: cells expressing SNAP tagged-FLT3, 0.5 nM Red-FL
T1 construct: expressed in transfected cells
T1 sequence (P36888 27-993): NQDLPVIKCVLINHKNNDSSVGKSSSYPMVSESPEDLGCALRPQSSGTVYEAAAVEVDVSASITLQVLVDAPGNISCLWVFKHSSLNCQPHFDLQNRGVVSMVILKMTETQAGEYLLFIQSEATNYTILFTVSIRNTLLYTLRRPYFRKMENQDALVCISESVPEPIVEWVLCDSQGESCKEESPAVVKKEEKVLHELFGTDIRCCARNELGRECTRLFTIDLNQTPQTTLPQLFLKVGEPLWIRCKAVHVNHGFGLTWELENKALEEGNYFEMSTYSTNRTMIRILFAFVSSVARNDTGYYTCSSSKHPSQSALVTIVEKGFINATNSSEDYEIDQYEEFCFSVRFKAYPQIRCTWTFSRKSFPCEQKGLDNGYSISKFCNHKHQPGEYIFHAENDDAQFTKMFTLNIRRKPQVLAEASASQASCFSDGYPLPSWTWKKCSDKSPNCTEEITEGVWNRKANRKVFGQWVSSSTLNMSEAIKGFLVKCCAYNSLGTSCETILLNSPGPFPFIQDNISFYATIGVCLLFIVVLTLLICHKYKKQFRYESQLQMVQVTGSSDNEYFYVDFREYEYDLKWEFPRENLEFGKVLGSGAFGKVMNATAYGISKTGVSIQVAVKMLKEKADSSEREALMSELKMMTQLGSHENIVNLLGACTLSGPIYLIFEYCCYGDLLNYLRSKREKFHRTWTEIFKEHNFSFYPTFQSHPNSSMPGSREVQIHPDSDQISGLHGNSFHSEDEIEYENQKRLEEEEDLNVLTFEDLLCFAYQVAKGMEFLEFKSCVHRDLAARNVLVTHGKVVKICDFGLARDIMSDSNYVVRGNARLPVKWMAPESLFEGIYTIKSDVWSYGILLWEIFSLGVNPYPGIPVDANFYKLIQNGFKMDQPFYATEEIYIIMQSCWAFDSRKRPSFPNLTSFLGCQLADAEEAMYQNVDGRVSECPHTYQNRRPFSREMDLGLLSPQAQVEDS
Procedure: Covalent Labeling of Cells Expressing the SNAP Tagged-FLT3
Labelling of Adherent Cells
Cell culture medium was removed from the 96 well plates and 100 nM of SNAP-Lumi4 Tb previously diluted in the Tag-lite labelling medium, was added under 100 μl per well, and further incubated 1 h at 37° C. under 5% CO2. The excess of SNAP-Lumi4-Tb was removed by washing each well 4 times with 100 μl of Tag-lite labelling medium.
Labelling of a Batch of Cells and Cells Freezing
After removal of the cell culture medium from a flask containing adherent cells, 5 ml of Tag-lite labelling medium containing 100 nM of SNAP-Lumi4-Tb was added to the flask and incubated for 1 h at 37° C. under 5% CO2. The excess of SNAP-Lumi4-Tb was removed by washing each flask 4 times with 5 ml of Tag-lite labelling medium. Cells were detached, pelleted by centrifugation (5 min at 1,300 rpm) and suspended in a cell culture medium containing 10% DMSO. Then, cells were distributed at 5 millions cells per vial and slowly frozen to −80° C. in isopropanol then transferred in liquid nitrogen for storage.
Prior to their use, the frozen cells were thawed quickly at 37° C., the medium was removed from the vials and the cells were suspended in the Tag-lite labelling medium at a cell-density of 1 million cells/ml.
Tag-lite binding assays were performed 24 h after transfection on fresh cells. When using frozen cells, binding assays were carried out immediately after cells thawing. When the assay was carried out on adherent cells in 96-well plates, the cell density was 50,000 cells per well, while a density of 10,000 cells per well was used to carry out binding assays in suspension in 384-well small volume plates.
Competition Binding Assay
Both Red-FL and the compounds to be tested were diluted in Tag-lite labelling medium. Cells were incubated with 0.5 nM Red-FL in the presence of increasing concentrations of compounds to be tested. In the plates containing labelled cells, 50 μl (or 10 μl in 384-well plates) of Tag-lite labelling medium, 25 μl (or 5 μl in 384-well plates) of compounds to be tested were added and incubated for 1 h at Room temperature prior to the addition of 25 μl (or 5 μl in 384-well plates) of Red-FL. Plates were then incubated at room temperature for 4 h or overnight before signal detection.
(§1) Signal was detected using an advanced fluorescence microplate reader (RUBYstar, BMG Labtech) equipped with a HTRF optic module allowing a donor excitation at 337 nm and a signal collection both at 665 nm and 620 nm. A frequency of 20 flashes/well is selected for the laser excitation. The signal was collected both at 665 nm and 620 nm using the following time-resolved settings: delay 50 μs, integration time 400 μs. HTRF ratios were obtained by dividing the acceptor signal (665 nm) by the donor signal (620 nm) and multiplying this value by 10,000. The 10,000 multiplying factor is used solely for the purpose of easier data handling.
(§2) Data Analysis and Statistics
(§3) Kd values of the fluorescent ligand were determined from saturation curves of the specific binding using GraphPad Prism software (GraphPad Software, Inc., San Diego, Calif.). Ki values of the compounds were determined from binding competition experiments according to the Cheng and Prusoff equation. EC50 and IC50 values of the rh-FL and compounds were determined from sigmoidal dose-response curves using GraphPad Prism software (GraphPad Software, Inc., San Diego, Calif.).

[2] = target: T2, FLT3 receptor (Homo sapiens, UniProt P36888); assay: Auto-phosphorylation competition assay on RS4-11 cells (HTRF); assay type: cell-based; settings: RS4-11 cells expressing endogenous FLT3, 0.1 μM rh-FL; read-out: IC50, μM Autophosphorylation
T2 construct: Auto-phosphorylation assays were performed on RS4-11 cells that express endogenous FLT3 receptor; endogenous in cells; host or cells: RS4-11 cells
T2 sequence (P36888 27-993): T1 sequence (P36888 27-993)
Procedure: Auto-Phosphorylation Assays
Auto-phosphorylation assays were performed on RS4-11 cells that express endogenous FLT3 receptor. A density of 50,000 cells per well was used to carry out this assay in suspension in 384-well small volume plates to determine the degree of phosphorylation of FLT3. In the aim to discover antagonist compounds and to develop this assay, we were determined the efficiency of FL on RS4-11 cells.
Both rh-FL and the compounds to be tested were diluted in Tag-lite labelling medium. Cells were incubated with 0.1 μM of rh-FL in the presence of increasing concentrations of compounds to be tested. In the plates containing RS4-11 cells (5 μl/well), 5 μl of compounds to be tested were added and incubated for 1 h at Room temperature prior to the addition of 2 μl of rh-FL at 0.1 μM. After incubation of 3 minutes at room temperature of rh-FL, 4 μl of lysis buffer were added and incubated for 2 h at room temperature. A mix of anti-FLT3 and an anti-TYR-969 FLT3 antibodies labeled with Lumi4-Tb and d2 respectively (4 μl) diluted in Tag-lite labelling medium, were added on cell lysate. Plates were then incubated at room temperature for 2 h or overnight before signal detection.
as §1, §2, §3

O=C(Nc1cccc(S(=O)(=O)N2CCCCC2)c1)c1cc(Cl)ccc1O [Example 10, 5-Chloro-2-hydroxy-N-[3-(piperidine-1sulfonyl)phenyl]benzamide]
IC50 [1]: 4.6 µM | IC50 [2]: 116 µM

CN(C1CCCCCC1)S(=O)(=O)c1cccc(C(=O)Nc2cc(Cl)ccc2O)c1 [Example 11, N-(5-chloro-2-hydroxyphenyl)-3-[cycloheptyl(methyl)sulfamoyl]benzamide]
IC50 [1]: 27.5 µM | IC50 [2]: 41 µM

NCCCN(C1CCCCC1)S(=O)(=O)c1cccc(-c2nc3cc(Cl)ccc3o2)c1 [Example 7, N-(3-aminopropyl)-3-(5-chloro-1,3-benzoxazol-2-yl)-N-cyclohexylbenzene-1-sulfonamide]
IC50 [1]: 10 µM | IC50 [2]: 63 µM

O=S(=O)(c1cccc(-c2nnc(-c3cc(Cl)ccc3O)[nH]2)c1)N1CCCCC1 [Example 4, 4-chloro-2-(5-(3-(piperidin-1-ylsulfonyl)phenyl)-4H-1,2,4-triazol-3-yl)phenol]
IC50 [1]: 26 µM | IC50 [2]: 20 µM

O=C(Nc1cc(Cl)ccc1O)c1cccc(S(=O)(=O)N2CCCCC2)c1 [Example 1, N-(5-chloro-2-hydroxyphenyl)-3-(piperidin-1-ylsulfonyl) benzamide]
IC50 [1]: 11.8 µM | IC50 [2]: 58 µM

O=S(=O)(c1cccc(-c2ncc(-c3cc(Cl)ccc3O)[nH]2)c1)N1CCCCC1 [Example 5, 4-chloro-2-(2-(3-(piperidin-1-ylsulfonyl)phenyl)-1H-imidazol-5-yl)phenol]
IC50 [1]: 33 µM | IC50 [2]: 17 µM

O=S(=O)(c1cccc(-c2nc3cccc(O)c3[nH]2)c1)N1CCCCC1 [Example 8, 2-[3-(1-piperidylsulfonyl)phenyl]-3H-benzimidazol-4-ol]
IC50 [1]: 98 µM | IC50 [2]: 68 µM

O=C(Nc1cc(Cl)ccc1-c1nnn[nH]1)c1cccc(S(=O)(=O)N2CCCCC2)c1 [Example 9, N-[5-chloro-2-(1H-1,2,3,4-tetrazol-5-yl)phenyl]-3-(piperidine-1-sulfonyl)benzamide]
IC50 [1]: 175 µM | IC50 [2]: 148 µM
